Data on ten compounds can be found in patent US12492188B2, “1H-benzo[D]imidazole derivatives as TLR9 inhibitors for the treatment of fibrosis” (BRISTOL-MYERS SQUIBB COMPANY, priority 2020, dated 2025).

Read-outs that look alike come from different tables or passages of the source.

Holding throughout (assay type): cell-based
One assay deals with T1, human TLR9 (Homo sapiens, UniProt Q9NR96).
T1 construct: host or cells: HEK-Blue cells (HEK293-derived reporter line)
T1 sequence (Q9NR96 26-1032): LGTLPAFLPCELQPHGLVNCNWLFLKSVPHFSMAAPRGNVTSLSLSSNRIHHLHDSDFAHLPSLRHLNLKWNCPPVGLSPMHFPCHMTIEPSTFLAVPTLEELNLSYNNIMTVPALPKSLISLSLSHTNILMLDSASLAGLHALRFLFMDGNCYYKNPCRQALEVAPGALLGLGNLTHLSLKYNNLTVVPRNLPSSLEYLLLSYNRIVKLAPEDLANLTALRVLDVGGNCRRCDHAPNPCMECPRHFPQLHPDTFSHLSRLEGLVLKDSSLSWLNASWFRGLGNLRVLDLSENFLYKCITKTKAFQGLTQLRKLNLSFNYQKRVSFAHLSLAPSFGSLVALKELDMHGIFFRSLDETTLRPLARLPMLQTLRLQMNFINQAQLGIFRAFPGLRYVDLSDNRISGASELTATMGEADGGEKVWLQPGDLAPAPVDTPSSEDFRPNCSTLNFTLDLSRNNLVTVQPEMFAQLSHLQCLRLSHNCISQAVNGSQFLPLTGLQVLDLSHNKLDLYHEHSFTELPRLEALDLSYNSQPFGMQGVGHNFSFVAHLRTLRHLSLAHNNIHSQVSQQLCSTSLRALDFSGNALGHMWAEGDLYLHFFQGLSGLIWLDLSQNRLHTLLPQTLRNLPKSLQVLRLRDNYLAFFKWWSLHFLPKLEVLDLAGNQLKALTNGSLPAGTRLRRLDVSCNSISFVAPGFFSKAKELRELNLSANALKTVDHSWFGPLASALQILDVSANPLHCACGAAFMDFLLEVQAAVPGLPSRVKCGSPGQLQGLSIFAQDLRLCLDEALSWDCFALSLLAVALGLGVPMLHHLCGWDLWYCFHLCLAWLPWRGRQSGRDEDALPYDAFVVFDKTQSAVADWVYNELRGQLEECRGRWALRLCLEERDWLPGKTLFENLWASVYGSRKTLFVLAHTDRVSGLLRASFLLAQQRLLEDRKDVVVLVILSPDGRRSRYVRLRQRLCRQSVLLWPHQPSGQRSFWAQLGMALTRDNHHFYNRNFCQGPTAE
The experiment in a line: TLR9 inhibition reporter assay (HEK-Blue cells, secreted embryonic alkaline phosphatase reporter). The settings on record: HEK-Blue cells overexpressing human TLR9, stimulated with ODN2006 5 nM. The method in brief:
(§1)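 Agonist-driven SEAP output was measured in HEK-Blue reporter cells carrying human TLR7 (gardiquimod 7.5 μM), TLR8 (R848 15.9 μM) or TLR9 (ODN2006 5 nM). Compounds at 0.05 nM–50 μM final were added 30 min before stimulation at room temperature. After 22 h at 37 °C, percent inhibition was taken against agonist/DMSO wells and a reference inhibitor.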
(In general: In a reporter assay the amount or activity of a reporter protein is the signal.)

A further assay concerns the target T2, human TLR7 (Homo sapiens, UniProt Q9NYK1).
T2 construct: host or cells: HEK-Blue cells (HEK293-derived reporter line)
T2 sequence (Q9NYK1 27-1049): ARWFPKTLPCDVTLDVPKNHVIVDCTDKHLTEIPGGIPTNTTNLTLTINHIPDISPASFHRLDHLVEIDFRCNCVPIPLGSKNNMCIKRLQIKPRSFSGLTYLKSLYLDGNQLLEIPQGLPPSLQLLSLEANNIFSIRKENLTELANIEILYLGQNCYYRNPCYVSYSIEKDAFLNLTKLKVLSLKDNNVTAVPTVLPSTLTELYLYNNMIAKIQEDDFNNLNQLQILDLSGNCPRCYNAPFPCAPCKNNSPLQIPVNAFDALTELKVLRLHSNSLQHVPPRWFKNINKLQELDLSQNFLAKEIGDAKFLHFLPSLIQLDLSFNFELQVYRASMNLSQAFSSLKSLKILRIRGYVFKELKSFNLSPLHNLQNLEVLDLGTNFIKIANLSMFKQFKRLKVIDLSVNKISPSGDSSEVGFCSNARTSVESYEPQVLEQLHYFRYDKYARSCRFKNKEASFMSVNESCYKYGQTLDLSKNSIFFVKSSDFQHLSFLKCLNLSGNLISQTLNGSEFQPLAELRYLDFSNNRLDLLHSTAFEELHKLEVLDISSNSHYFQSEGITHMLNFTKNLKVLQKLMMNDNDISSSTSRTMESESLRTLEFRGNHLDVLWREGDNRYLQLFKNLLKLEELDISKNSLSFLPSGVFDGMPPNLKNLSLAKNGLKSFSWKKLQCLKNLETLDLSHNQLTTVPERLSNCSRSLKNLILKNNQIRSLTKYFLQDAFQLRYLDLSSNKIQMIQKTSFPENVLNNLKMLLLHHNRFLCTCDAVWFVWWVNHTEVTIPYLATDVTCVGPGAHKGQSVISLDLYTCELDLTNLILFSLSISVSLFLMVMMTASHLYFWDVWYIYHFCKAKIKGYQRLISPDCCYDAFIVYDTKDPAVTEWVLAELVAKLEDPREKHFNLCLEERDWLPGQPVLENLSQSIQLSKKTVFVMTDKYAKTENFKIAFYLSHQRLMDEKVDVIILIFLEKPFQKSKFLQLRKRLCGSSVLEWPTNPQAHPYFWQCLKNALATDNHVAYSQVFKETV
The experiment in a line: TLR7 inhibition reporter assay (HEK-Blue cells, secreted embryonic alkaline phosphatase reporter). Particulars: HEK-Blue cells overexpressing human TLR7, stimulated with gardiquimod 7.5 μM; read-out: TLR 7 IC50. The method in brief: as §1

Another assay concerns the target T3, human TLR8 (Homo sapiens, UniProt Q9NR97).
T3 construct: host or cells: HEK-Blue cells (HEK293-derived reporter line)
T3 sequence (Q9NR97 27-1041): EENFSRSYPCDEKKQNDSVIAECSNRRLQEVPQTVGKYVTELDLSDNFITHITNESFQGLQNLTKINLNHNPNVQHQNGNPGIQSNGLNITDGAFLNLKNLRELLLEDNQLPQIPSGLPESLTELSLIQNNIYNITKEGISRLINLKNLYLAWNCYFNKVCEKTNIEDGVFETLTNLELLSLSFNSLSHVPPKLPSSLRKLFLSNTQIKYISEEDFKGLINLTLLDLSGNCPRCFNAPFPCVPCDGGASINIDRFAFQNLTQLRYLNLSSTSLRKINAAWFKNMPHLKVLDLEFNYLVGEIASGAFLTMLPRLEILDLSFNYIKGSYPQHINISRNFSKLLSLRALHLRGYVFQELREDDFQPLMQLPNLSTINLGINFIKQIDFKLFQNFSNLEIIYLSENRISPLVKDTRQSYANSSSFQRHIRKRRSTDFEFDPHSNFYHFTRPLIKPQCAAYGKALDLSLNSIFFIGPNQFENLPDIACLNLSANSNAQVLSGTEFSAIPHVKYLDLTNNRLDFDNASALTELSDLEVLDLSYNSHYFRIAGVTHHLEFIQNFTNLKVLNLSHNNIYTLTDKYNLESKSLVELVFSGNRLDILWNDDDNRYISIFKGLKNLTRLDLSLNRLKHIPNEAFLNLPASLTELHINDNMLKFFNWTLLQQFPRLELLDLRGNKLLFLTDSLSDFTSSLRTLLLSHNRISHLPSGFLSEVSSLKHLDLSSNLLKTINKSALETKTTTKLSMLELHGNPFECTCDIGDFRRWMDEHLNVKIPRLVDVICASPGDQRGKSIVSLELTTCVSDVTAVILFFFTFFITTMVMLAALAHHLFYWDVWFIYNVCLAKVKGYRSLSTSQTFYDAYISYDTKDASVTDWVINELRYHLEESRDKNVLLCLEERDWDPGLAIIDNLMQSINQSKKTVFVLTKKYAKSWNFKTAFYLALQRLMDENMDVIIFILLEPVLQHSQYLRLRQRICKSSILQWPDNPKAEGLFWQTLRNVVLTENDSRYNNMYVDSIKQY
The experiment in a line: TLR8 inhibition reporter assay (HEK-Blue cells, secreted embryonic alkaline phosphatase reporter). Particulars: HEK-Blue cells overexpressing human TLR8, stimulated with R848 15.9 μM; read-out: TLR 8 IC50. The method in brief: as §1

Where [1] appears, read: 22 hour incubation, reporter readout.

`Cc1cc(-c2ccc(C3CCN(C4CCN(C)CC4)CC3)cc2)cc2c1nc(-c1ccc(S(C)(=O)=O)cc1)n2C` [Example 400, 1,4-dimethyl-6-(4-(1′-methyl-[1,4′-bipiperidin]-4-yl)phenyl)-2-(4-(methylsulfonyl)phenyl)-1H-benzo[d]imidazole]: the IC50 (in general, the concentration that inhibits the measured activity by half) against human TLR9 (setting [1]) is 76 nM; at human TLR9 (read-out: TLR 9 IC50), 76 nM; on human TLR7, 1500 nM; at human TLR8 it was 1300 nM.
For `Cc1cc(-c2ccc(C3CCN(C4CCN(C5CC5)CC4)CC3)cc2)cc2c1nc(-c1ccc(S(C)(=O)=O)cc1)n2C` [Example 401, 6-(4-(1′-cyclopropyl-[1,4′-bipiperidin]-4-yl)phenyl)-1,4-dimethyl-2-(4-(methylsulfonyl)phenyl)-1H-benzo[d]imidazole], the 50% inhibitory concentration (IC50) against human TLR9 (setting [1]) was 100 nM; at human TLR9 (read-out: TLR 9 IC50) it was 104 nM; on human TLR7 it was 2700 nM; at human TLR8, 1200 nM.
The like results for `Cc1cc(-c2ccc(CN3CCC(N4CCC4)CC3)cc2)cc2c1nc(-c1ccc(S(C)(=O)=O)cc1)n2C` [Example 402, 6-(4-((4-(azetidin-1-yl)piperidin-1-yl)methyl)phenyl)-1,4-dimethyl-2-(4-(methylsulfonyl)phenyl)-1H-benzo[d]imidazole] were, in that order, 3.9 nM, 3.9 nM, 600 nM and 5800 nM.
On the same counts, the results for `Cc1cc(-c2ccc(CN3CCC(N4CCC4)CC3)c(F)c2)cc2c1nc(-c1ccc(S(C)(=O)=O)cc1)n2C` [Example 403, 6-(4-((4-(azetidin-1-yl)piperidin-1-yl)methyl)-3-fluorophenyl)-1,4-dimethyl-2-(4-(methylsulfonyl)phenyl)-1H-benzo[d]imidazole] are 81 nM, 94 nM, 300 nM and 15800 nM.
On to `Cc1cc(-c2ccc(CN3CC4(C3)CN(C(C)C)C4)c(F)c2)cc2c1nc(-c1ccc(S(C)(=O)=O)cc1)n2C` [Example 404, 6-(3-fluoro-4-((6-isopropyl-2,6-diazaspiro[3.3]heptan-2-yl)methyl)phenyl)-1,4-dimethyl-2-(4-(methylsulfonyl)phenyl)-1H-benzo[d]imidazole], for which the IC50 is 69 nM against human TLR9 (setting [1]), 69 nM on human TLR9 (read-out: TLR 9 IC50), 100 nM on human TLR7 and 7200 nM on human TLR8.
Turning to `Cc1cc(-c2cc(F)cc(CN3CCC(N4CCCC4)CC3)c2)cc2c1nc(-c1ccc(S(C)(=O)=O)cc1)n2C` [Example 405, 6-(3-fluoro-5-((4-(pyrrolidin-1-yl)piperidin-1-yl)methyl)phenyl)-1,4-dimethyl-2-(4-(methylsulfonyl)phenyl)-1H-benzo[d]imidazole], the 50% inhibitory concentration (IC50) came to 21 nM against human TLR9 (setting [1]), 21 nM at human TLR9 (read-out: TLR 9 IC50), 300 nM at human TLR7 and 900 nM on human TLR8.
As to `Cc1cc(-c2cc(F)cc(CN3CCC(N4CCC4)CC3)c2)cc2c1nc(-c1ccc(S(C)(=O)=O)cc1)n2C` [Example 406, 6-(3-((4-(azetidin-1-yl)piperidin-1-yl)methyl)-5-fluorophenyl)-1,4-dimethyl-2-(4-(methylsulfonyl)phenyl)-1H-benzo[d]imidazole], the IC50 at human TLR9 (setting [1]) is 130 nM; on human TLR9 (read-out: TLR 9 IC50), 133 nM; on human TLR7, 600 nM; on human TLR8, 2000 nM.
The like results for `Cc1cc(-c2cccc(CN3CCC(N4CCCC4)CC3)c2)cc2c1nc(-c1ccc(S(C)(=O)=O)cc1)n2C1CC1` [Example 407, 1-cyclopropyl-4-methyl-2-(4-(methylsulfonyl)phenyl)-6-(3-((4-(pyrrolidin-1-yl)piperidin-1-yl)methyl)phenyl)-1H-benzo[d]imidazole] were, in that order, 46 nM, 46 nM, 800 nM and 5000 nM.
`CS(=O)(=O)c1ccc(-c2nc3c(F)cc(-c4ccc(CN5CCC(N6CCCC6)CC5)cc4)cc3n2C2CC2)cc1` [Example 408, 1-cyclopropyl-4-fluoro-2-(4-(methylsulfonyl)phenyl)-6-(4-((4-(pyrrolidin-1-yl)piperidin-1-yl)methyl)phenyl)-1H-benzo[d]imidazole]: the half-maximal inhibitory concentration (IC50) against human TLR9 (setting [1]) came to 140 nM; at human TLR9 (read-out: TLR 9 IC50) it was 136 nM; on human TLR7 it was 1600 nM; at human TLR8, 900 nM.
Turning to `Cn1c(-c2ccc(S(C)(=O)=O)cc2)nc2c(F)cc(-c3ccc(CN4CCC(N5CCCC5)CC4)cc3)cc21` [Example 409, 4-fluoro-1-methyl-2-(4-(methylsulfonyl)phenyl)-6-(4-((4-(pyrrolidin-1-yl)piperidin-1-yl)methyl)phenyl)-1H-benzo[d]imidazole], the 50% inhibitory concentration (IC50) stood at 5.3 nM at human TLR9 (setting [1]), 5.3 nM on human TLR9 (read-out: TLR 9 IC50), 1500 nM at human TLR7 and 1000 nM on human TLR8.
